Measurements as given in patent US9745339B2 (GRAFFINITY PHARMACEUTICALS GMBH, priority 2012, dated 2017).

Columns and labels:
Conditions in all cases: L55-73: estimated values based on the knowledge obtained from L01-L54
Cetuximab = assay: Microtiter plate chromatography of resins: binding and elution of Cetuximab
Description: (§1) Resins were assessed in packed mode by microtiter plate chromatography. For each column, approximately 30 μl of resin were transferred to a 384-well filter plate and sealed with appropriate top fits. Columns with rProtein A SEPHAROSE 4 FF and MABSORBENT A2P HF were included as controls.
(§2) Either 3.3 cv of whole IgGs dissolved at 0.5 mg ml^−1 in PBS or undiluted host cell proteins (HCP) were injected onto columns.
(§3) Unbound protein was washed from columns with 5 cv of PBS prior to elution with 5 cv of glycine buffer at pH 2.5. […] During injection of samples, speed was reduced to 10 g and centrifugation time increased to 5-10 min. Effluent fractions were collected in 384-well plates and concentrations of protein were analyzed by Bradford assay. Protein masses mi, mft and me (see below) were calculated as the product of fraction volume and measured protein concentration.
(§4) The fraction of bound protein was calculated as the difference between the total mass of protein injected mi and the mass of protein detected in the flowthrough mft, divided by the total mass of protein injected.
(§5) The yield of protein was calculated as the mass of protein eluted me, divided by the mass of protein injected mi.
(§6) The fraction of bound protein and the yield of protein were calculated for each resin based on data for whole IgG-antibodies. In the case of host cell proteins, only the fraction of bound protein is given. Selectivity of resins was calculated from data for Bevacizumab whole IgG and host cell proteins. Due to limited experimental precision, selectivity was truncated for values beyond 10.

Palivizumab = assay: Microtiter plate chromatography of resins: binding and elution of Palivizumab
Description: as §1, §2, §3, §4, §5, §6

[1] = test system: poly-IgG from human serum (h-poly-IgG); assay: Microtiter plate chromatography of resins: binding and elution of human poly-IgG
Description: as §1, §2, §3, §4, §5, §6

host cell proteins (HCP) = assay: Microtiter plate chromatography of resins: binding of host cell proteins; parameters: species or system CHO cell culture
Description: Flowthrough from protein A chromatography (referred to as host cell proteins) was derived from the supernatant of antibody-producing CHO cell culture in serum-free medium. Coomassie brilliant blue dye reagent for Bradford assay was purchased from Thermo Scientific (Bonn/Germany).
as §1, §2, §3, §4, §6

Bevacizumab = target: T1, Bevacizumab (Homo sapiens, UniProt P01857); assay: Microtiter plate chromatography of resins: binding and elution of Bevacizumab
T1 construct: 0.5 mg/ml IgG in PBS pH 7.3; ligand immobilized on SEPHAR; Bevacizumab Yield; other: mass eluted (glycine pH 2.5) / mass injected; kd (dissociation constant, Langmuir isotherm); other: Bevacizumab 0.05-5 mg/ml in PBS pH 7.3, 25° C., at least 3 h; qm (maximum capacity); other: mg Bevacizumab per ml of resin; Langmuir isotherm; t0; fused on or other part: Humanized anti-VEGF-A VH domain joined N-terminally to the IGHG1 constant region (engineered, no UniProt entry)
Description: as §1, §2, §3, §4, §5
The selectivity of resins was calculated as the fraction of bound Bevacizumab antibody BAb, divided by the fraction of bound host cell proteins BHCP.
as §6

Tocilizumab = assay: Microtiter plate chromatography of resins: binding and elution of Tocilizumab
Description: as §1, §2, §3, §4, §5, §6

SMILES | Cetuximab Bound (Cetuximab) | Palivizumab Bound (Palivizumab) | h-poly-IgG Bound [1] | HCP Bound (host cell proteins (HCP)) | Bevacizumab Bound (Bevacizumab) | Bevacizumab Yield (Bevacizumab) | Tocilizumab Bound (Tocilizumab)
NCCCn1cnc2cc(C(=O)Nc3ncc(-c4ccco4)s3)ccc21 [Ligand L58, 1-(3-Amino-1-propyl)benzimidazole-5-carboxylic acid N-[5-(2-furyl)thiazol-2-yl] amide] | 100% | >80% | >80% | <40% | 100% | >80% | >95%
NCCCn1cnc2cc(C(=O)Nc3nnc(-c4ccoc4)s3)ccc21 [Ligand L56, 1-(3-Amino-1-propyl)benzimidazole-5-carboxylic acid N-[5-(3-furyl)-1,3,4-thiadiazol-2-yl] amide] | 100% | >80% | >80% | <40% | 100% | >80% | >95%
Cc1nc2cc(C(=O)Nc3ccc(-c4ccco4)nn3)ccc2n1CCCN [Ligand L64, 1-(3-Amino-1-propyl)-2-methylbenzimidazole-5-carboxylic acid N-[6-(2-furyl)pyridazin-3-yl] amide] | >95% | >60% | >80% | <20% | 100% | >80% | >90%
NCCCNc1nc(-c2ccc(C(=O)Nc3nnc(-c4ccco4)s3)cc2)cs1 [Ligand L70, 4-[2-(3-Amino-1-propylamino)thiazol-4-yl]benzoic acid N-[5-(2-furyl)-1,3,4-thiadiazol-2-yl]amide] | >80% | >50% | >80% | <40% | 100% | >80% | >80%
Cc1nc2cc(C(=O)Nc3nnc(-c4cnco4)s3)ccc2n1CCCN [Ligand L72, 1-(3-Amino-1-propyl)-2-methylbenzimidazole-5-carboxylic acid N-[5-(5-oxazolyl)-1,3,4-thiadiazol-2-yl] amide] | >95% | >60% | >80% | <20% | 100% | >80% | >90%
NCCCn1cnc2cc(C(=O)Nc3ccc(-c4ccco4)nn3)ccc21 [Ligand L59, 1-(3-Amino-1-propyl)benzimidazole-5-carboxylic acid N-[6-(2-furyl)pyridazin-3-yl] amide] | >95% | >60% | >80% | <40% | 100% | >80% | >90%
Cc1nc2cc(C(=O)Nc3nnc(-c4ccno4)s3)ccc2n1CCCN [Ligand L71, 1-(3-Amino-1-propyl)-2-methylbenzimidazole-5-carboxylic acid N-[5-(5-isoxazolyl)-1,3,4-thiadiazol-2-yl] amide] | >95% | >60% | >80% | <20% | 100% | >80% | >90%
NCCCn1cnc2cc(C(=O)Nc3nc(-c4ccco4)ns3)ccc21 [Ligand L55, 1-(3-Amino-1-propyl)benzimidazole-5-carboxylic acid N-[3-(2-furyl)-1,2,4-thiadiazol-5-yl] amide] | 100% | >80% | >80% | <40% | 100% | >80% | >95%
Cc1nc2cc(C(=O)Nc3nc(-c4ccco4)cs3)ccc2n1CCCN [Ligand L62, 1-(3-Amino-1-propyl)-2-methylbenzimidazole-5-carboxylic acid N-[4-(2-furyl)thiazol-2-yl] amide] | 100% | >80% | >80% | <40% | 100% | >80% | >95%
CCc1nc2cc(C(=O)Nc3nc(-c4ccco4)ns3)ccc2n1CCCN [Ligand L65, 1-(3-Amino-1-propyl)-2-ethylbenzimidazole-5-carboxylic acid N-[3-(2-furyl)-1,2,4-thiadiazol-5-yl] amide] | 100% | >80% | >80% | <30% | 100% | >80% | >95%
Cc1nc2cc(C(=O)Nc3nc(-c4ccco4)ns3)ccc2n1CCCN [Ligand L60, 1-(3-Amino-1-propyl)-2-methylbenzimidazole-5-carboxylic acid N-[3-(2-furyl)-1,2,4-thiadiazol-5-yl] amide] | 100% | >80% | >80% | <40% | 100% | >80% | >95%
CCc1nc2cc(C(=O)Nc3nc(-c4ccco4)cs3)ccc2n1CCCN [Ligand L67, 1-(3-Amino-1-propyl)-2-ethylbenzimidazole-5-carboxylic acid N-[4-(2-furyl)thiazol-2-yl] amide] | 100% | >80% | >80% | <30% | 100% | >80% | >95%
Cc1nc2cc(C(=O)Nc3nnc(-c4ncco4)s3)ccc2n1CCCN [Ligand L73, 1-(3-Amino-1-propyl)-2-methylbenzimidazole-5-carboxylic acid N-[5-(2-oxazolyl)-1,3,4-thiadiazol-2-yl] amide] | >95% | >60% | >80% | <20% | 100% | >80% | >90%
CCc1nc2cc(C(=O)Nc3ccc(-c4ccco4)nn3)ccc2n1CCCN [Ligand L69, 1-(3-Amino-1-propyl)-2-ethylbenzimidazole-5-carboxylic acid N-[6-(2-furyl)pyridazin-3-yl]amide] | >95% | >60% | >80% | <30% | 100% | >80% | >90%
CCc1nc2cc(C(=O)Nc3nnc(-c4ccoc4)s3)ccc2n1CCCN [Ligand L66, 1-(3-Amino-1-propyl)-2-ethylbenzimidazole-5-carboxylic acid N-[5-(3-furyl)-1,3,4-thiadiazol-2-yl] amide] | 100% | >80% | >80% | <30% | 100% | >80% | >95%
CCc1nc2cc(C(=O)Nc3ncc(-c4ccco4)s3)ccc2n1CCCN [Ligand L68, 1-(3-Amino-1-propyl)-2-ethylbenzimidazole-5-carboxylic acid N-[5-(2-furyl)thiazol-2-yl] amide] | 100% | >80% | >80% | <30% | 100% | >80% | >95%
Cc1nc2cc(C(=O)Nc3nnc(-c4ccoc4)s3)ccc2n1CCCN [Ligand L61, 1-(3-Amino-1-propyl)-2-methylbenzimidazole-5-carboxylic acid N-[5-(3-furyl)-1,3,4-thiadiazol-2-yl] amide] | 100% | >80% | >80% | <40% | 100% | >80% | >95%
NCCCn1cnc2cc(C(=O)Nc3nc(-c4ccco4)cs3)ccc21 [Ligand L57, 1-(3-Amino-1-propyl)benzimidazole-5-carboxylic acid N-[4-(2-furyl)thiazol-2-yl] amide] | 100% | >80% | >80% | <40% | 100% | >80% | >95%
